From patent US8445690B2, “Aminothiazolones as estrogen related receptor-alpha modulators” (Janssen Pharmaceutica NV, priority 2010, dated 2013) come the findings set out here.

Molecules are shown by their SMILES.

This assay addresses T1, ERR1 (also known as ERR-α or ERR-1) (Homo sapiens, UniProt P11474).
T1 sequence (P11474 193-421 limits assumed): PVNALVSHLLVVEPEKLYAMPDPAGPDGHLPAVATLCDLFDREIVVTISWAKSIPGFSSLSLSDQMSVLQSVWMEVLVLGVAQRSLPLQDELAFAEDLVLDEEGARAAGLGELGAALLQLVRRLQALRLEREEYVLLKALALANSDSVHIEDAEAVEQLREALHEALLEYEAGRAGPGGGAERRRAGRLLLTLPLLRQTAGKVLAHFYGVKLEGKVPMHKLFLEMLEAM
Nature of the assay: TR-FRET assay: disruption of co-activator peptide (GST-hSRC2) binding to 6His-tagged ERR1 LBD. As to conditions: 6 nM ERR1LBD, 6 nM GST-SRC-2 peptide, 25° C., 4-18 hours; average of 3 independent experiments. It is filed as biochemical. The procedure: Time-Resolved Fluorescence Resonance Energy Transfer (TR-FRET) experiments were performed to examine the functional response of ERR1 (also known as ERR-α or ERR-1) ligands. The TR-FRET assay described herein relied on the conformation of ERR1 for binding to a co-activator peptide: when a test compound binds to ERR1 and alters its conformation, it can disrupt the binding of the co-activator peptide. The components of this homogeneous secondary assay included: the ^6His-tagged-ERR1LBD, a GST-labeled-hSRC2 co-activator polypeptide and a fluorescent donor/acceptor pair from CIS bio international htrf/bioassays (Bedford, Mass.) using both an α-GST Europium Cryptate (Eu) label and an α^6His-XL665 (allophycocyanin) fluorophore.
For TR-FRET measurements, the reaction was buffered in 25 mM Tris pH 8, 2.5 mM Hepes, 20 mM KCl, 1 mM DTT, and 0.05 mg/mL BSA (-lipids). The final concentrations of reagents were 6 nM of ERR1LBD, 6 nM GST-SRC-2 peptide, 30 nM Eu cryptate, and 7.5 nM XL665. Reactions were allowed to reach equilibrium at 25° C. for 4-18 hours before collecting data on the Analyst from LJL Biosystems (Molecular Devices Sunnyvale, Calif.). As a time-resolved method, the samples were excited at […] and emission was collected for 1 ms at both 615 and 665 nm with delays of 400 and 75 μs, respectively. Dose response curves were fitted using a hyperbolic equation and the data reported is the average of 3 independent experiments.
Compounds listed in Tables II below were tested in the above assay, and they are all active modulators of ERR1.
With `O=C1N=C(NCCN2CCOCC2)S/C1=C\c1ccc2c(cnn2Cc2ccc(C(F)(F)F)cc2C(F)(F)F)c1` [Compound 12, 5-[1-(2,4-Bis-trifluoromethyl-benzyl)-1H-indazol-5-ylmethylene]-2-(2-morpholin-4-yl-ethylamino)-thiazol-4-one], the concentration for a half-maximal effect (EC50) is 15 nM.

In the case of `CN1CCN(CCNC2=NC(=O)/C(=C/c3ccc4c(c3)c(I)nn4Cc3ccc(C(F)(F)F)cc3C(F)(F)F)S2)CC1` [Compound 48, 5-({1-[2,4-Bis(trifluoromethyl)benzyl]-3-iodo-1H-indazol-5-yl}methylidene)-2-{[2-(4-methylpiperazin-1-yl)ethyl]amino}-1,3-thiazol-4(5H)-one], a half-maximal effect (EC50) was put at 5 nM.

`COc1ccc(Cn2ncc3cc(/C=C4\SC(NCC(F)F)=NC4=O)ccc32)c(C(F)(F)F)c1` [Compound 11, 2-(2,2-Difluoro-ethylamino)-5-[1-(4-methoxy-2-trifluoromethyl-benzyl)-1H-indazol-5-ylmethylene]-thiazol-4-one] displayed an EC50 of 3 nM.

With `O=C1N=C(N[C@H]2CCNC2)S/C1=C\c1ccc2c(cnn2Cc2ccc(Cl)cc2C(F)(F)F)c1` [Compound 21, 5-[1-(4-Chloro-2-trifluoromethyl-benzyl)-1H-indazol-5-ylmethylene]-2-(pyrrolidin-3S-ylamino)-thiazol-4-one], the response was half-maximal at 4.6 nM (EC50). The figure for `CN(C)CCCNC1=NC(=O)/C(=C/c2ccc3c(cnn3Cc3ccc(Cl)cc3C(F)(F)F)c2)S1` [Compound 3, 5-[1-(4-Chloro-2-trifluoromethyl-benzyl)-1H-indazol-5-ylmethylene]-2-(3-dimethylamino-propylamino)-thiazol-4-one] is 6.4 nM; for `COc1ccc(Cn2ncc3cc(/C=C4\SC(NCCN5CCCC5)=NC4=O)ccc32)c(C(F)(F)F)c1` [Compound 6, 5-[1-(4-Methoxy-2-trifluoromethyl-benzyl)-1H-indazol-5-ylmethylene]-2-(2-pyrrolidin-1-yl-ethylamino)-thiazol-4-one] it is 4.5 nM; for `O=C1N=C(NCCN2CCCC2=O)S/C1=C\c1ccc2c(cnn2Cc2ccc(C(F)(F)F)cc2C(F)(F)F)c1` [Compound 34, 5-[1-(2,4-Bis-trifluoromethyl-benzyl)-1H-indazol-5-ylmethylene]-2-[2-(2-oxo-pyrrolidin-1-yl)-ethylamino]-thiazol-4-one] it is 30.8 nM. The figure for `O=C1N=C(NCc2cncnc2)S/C1=C\c1ccc2c(cnn2Cc2ccc(C(F)(F)F)cc2C(F)(F)F)c1` [Compound 30, 5-[1-(2,4-Bis-trifluoromethyl-benzyl)-1H-indazol-5-ylmethylene]-2-[(pyrimidin-5-ylmethyl)-amino]-thiazol-4-one] is 11 nM; for `O=C1N=C(NC2CCN(CCO)CC2)S/C1=C\c1ccc2c(cnn2Cc2ccc(Cl)cc2C(F)(F)F)c1` [Compound 22, 5-[1-(4-Chloro-2-trifluoromethyl-benzyl)-1H-indazol-5-ylmethylene]-2-[1-(2-hydroxy-ethyl)-piperidin-4-ylamino]-thiazol-4-one] it is 14 nM; for `O=C1N=C(NCc2nn[nH]n2)S/C1=C\c1ccc2c(cnn2Cc2ccc(C(F)(F)F)cc2C(F)(F)F)c1` [Compound 15, 5-[1-(2,4-Bis-trifluoromethyl-benzyl)-1H-indazol-5-ylmethylene]-2-[(2H-tetrazol-5-ylmethyl)-amino]-thiazol-4-one] it is 3.9 nM. `O=C1N=C(NCc2cncnc2)S/C1=C\c1ccc2c(cnn2Cc2ccc(Cl)cc2C(F)(F)F)c1` [Compound 32, 5-[1-(4-Chloro-2-trifluoromethyl-benzyl)-1H-indazol-5-ylmethylene]-2-[(pyrimidin-5-ylmethyl)-amino]-thiazol-4-one] showed an EC50 of 8.6 nM. The figure for `O=C(O)CC(O)CNC1=NC(=O)/C(=C/c2ccc3c(cnn3Cc3ccc(Cl)cc3C(F)(F)F)c2)S1` (stereo not shown) [Compound 46, 4-{5-[1-(4-Chloro-2-trifluoromethyl-benzyl)-1H-indazol-5-ylmethylene]-4-oxo-4,5-dihydro-thiazol-2-ylamino}-3-hydroxy-butyric acid] is 22 nM; for `NS(=O)(=O)CCNC1=NC(=O)/C(=C/c2ccc3c(cnn3Cc3ccc(C(F)(F)F)cc3C(F)(F)F)c2)S1` [Compound 31, 2-{5-[1-(2,4-Bis-trifluoromethyl-benzyl)-1H-indazol-5-ylmethylene]-4-oxo-4,5-dihydro-thiazol-2-ylamino}-ethanesulfonic acid amide] it is 37 nM. The figure for `O=C1N=C(N[C@H]2CC[C@@H](C(=O)O)CC2)S/C1=C\c1ccc2c(cnn2Cc2ccc(Cl)cc2C(F)(F)F)c1` [Compound 44, (S,S)-4-{5-[1-(4-Chloro-2-trifluoromethyl-benzyl)-1H-indazol-5-ylmethylene]-4-oxo-4,5-dihydro-thiazol-2-ylamino}-cyclohexanecarboxylic acid] is 15 nM; for `O=C1N=C(N[C@H]2CN3CCC2CC3)S/C1=C\c1ccc2c(cnn2Cc2ccc(C(F)(F)F)cc2C(F)(F)F)c1` [Compound 26, 2-(1-Aza-bicyclo[2.2.2]oct-3(R)-ylamino)-5-[1-(2,4-bis-trifluoromethyl-benzyl)-1H-indazol-5-ylmethylene]-thiazol-4-one] it is 36 nM. For the compound `CN(C)CCCNC1=NC(=O)/C(=C/c2ccc3c(cnn3Cc3ccc(C(F)(F)F)cc3C(F)(F)F)c2)S1` [Compound 2, 5-[1-(2,4-Bis-trifluoromethyl-benzyl)-1H-indazol-5-ylmethylene]-2-(3-dimethylamino-propylamino)-thiazol-4-one], a half-maximal effect (EC50) was put at 12 nM. The figure for `O=C1N=C(NCCOCCO)S/C1=C\c1ccc2c(cnn2Cc2ccc(Cl)cc2Cl)c1` [Compound 8, 5-[1-(2,4-Dichloro-benzyl)-1H-indazol-5-ylmethylene]-2-[2-(2-hydroxy-ethoxy)-ethylamino]-thiazol-4-one] is 73 nM. The figure for `COc1ccc(Cn2ncc3cc(/C=C4\SC(NCCn5cncn5)=NC4=O)ccc32)c(C(F)(F)F)c1` [Compound 18, 5-[1-(4-Methoxy-2-trifluoromethyl-benzyl)-1H-indazol-5-ylmethylene]-2-(2-[1,2,4]triazol-1-yl-ethylamino)-thiazol-4-one] is 1.8 nM. The figure for `O=C1N=C(N[C@H]2CN3CCC2CC3)S/C1=C\c1ccc2c(cnn2Cc2ccc(Cl)cc2C(F)(F)F)c1` [Compound 28, 2-(1-Aza-bicyclo[2.2.2]oct-3(R)-ylamino)-5-[1-(4-chloro-2-trifluoromethyl-benzyl)-1H-indazol-5-ylmethylene]-thiazol-4-one] is 6 nM; for `O=C1N=C(NCCC2CCOCC2)S/C1=C\c1ccc2c(cnn2Cc2ccc(C(F)(F)F)cc2C(F)(F)F)c1` [Compound 33, 5-[1-(2,4-Bis-trifluoromethyl-benzyl)-1H-indazol-5-ylmethylene]-2-[2-(tetrahydro-pyran-4-yl)-ethylamino]-thiazol-4-one] it is 260 nM. `O=C1N=C(NCCn2cncn2)S/C1=C\c1ccc2c(cnn2Cc2ccc(C(F)(F)F)cc2C(F)(F)F)c1` [Compound 17, 5-[1-(2,4-Bis-trifluoromethyl-benzyl)-1H-indazol-5-ylmethylene]-2-(2-[1,2,4]triazol-1-yl-ethylamino)-thiazol-4-one] came in with an EC50 of 7.6 nM.

With `O=C1N=C(Nc2cccnc2)S/C1=C\c1ccc2c(cnn2Cc2ccc(Cl)cc2C(F)(F)F)c1` [Compound 20, 5-[1-(4-Chloro-2-trifluoromethyl-benzyl)-1H-indazol-5-ylmethylene]-2-(pyridin-3-ylamino)-thiazol-4-one], the 50% effective concentration (EC50) amounted to 19.4 nM. As for `O=C1N=C(N[C@@H]2CNC[C@H]2O)S/C1=C\c1ccc2c(cnn2Cc2ccc(Cl)cc2C(F)(F)F)c1` [Compound 47, (5Z)-5-({1-[4-Chloro-2-(trifluoromethyl)benzyl]-1H-indazol-5-yl}methylidene)-2-{[(3R,4R)-4-hydroxypyrrolidin-3-yl]amino}-1,3-thiazol-4(5H)-one], the midpoint of the response, the EC50, lay at 37 nM. The figure for `O=C1N=C(N[C@@H]2CN3CCC2CC3)S/C1=C\c1ccc2c(cnn2Cc2ccc(C(F)(F)F)cc2C(F)(F)F)c1` [Compound 29, 2-(1-Aza-bicyclo[2.2.2]oct-3(S)-ylamino)-5-[1-(2,4-bis-trifluoromethyl-benzyl)-1H-indazol-5-ylmethylene]-thiazol-4-one] is 39 nM; for `O=C(O)CNC1=NC(=O)/C(=C/c2ccc3c(cnn3Cc3ccc(Cl)cc3C(F)(F)F)c2)S1` [Compound 4, {5-[1-(4-Chloro-2-trifluoromethyl-benzyl)-1H-indazol-5-ylmethylene]-4-oxo-4,5-dihydro-thiazol-2-ylamino}-acetic acid] it is 23.1 nM.
